Source: US11739350B2 (priority 2018, dated 2023)

Assays:
[1] = tested on: patient-derived pancreatic cancer cell line (Patient 25)

GSK126
Cell viability (%) relative to mock vehicle-treated cells (title: GSK126-induced cytotoxicity (%)) (786-0): 111.99% | Cell viability (%) relative to mock vehicle-treated cells (title: GSK126-induced cytotoxicity (%)) (BxPC3): 96.07% | Cell viability as a percentage of control (cells treated with mock EVs and vehicle control) (Patient 25): 64.14 percentage of control | Cell viability (%) relative to mock vehicle-treated cells (title: GSK126-induced cytotoxicity (%)) (4T1): 113.57% | Cell viability as a percentage of control (cells treated with mock EVs and vehicle control) (786-0 cells): 98.35 percentage of control | Cell viability as a percentage of control (cells treated with mock EVs and vehicle control) (BXPC3 cells): 90.78 percentage of control | Cell viability (%) relative to mock vehicle-treated cells (title: GSK126-induced cytotoxicity (%)) [1]: 80.82%
